Measured values as given in patent publication US20160113919A1 (The Board of Trustees of the Leland Stanford Junior …, priority 2014, published 2016).

Test system: INH-resistant ΔkatG H37Rv
Assay: microbe, parasite or virus in culture
Type: cell-based, Mycobacterium tuberculosis

SMILES	EC80 against ΔkatG H37Rv [µM]	microbicidal capacity compared with S-CQ or racemic CQ	inhibition at 50 µM (Mycobacterium tuberculosis, H37RV, RAW264.7) [%]
CCN(CC)CCCC(C)Nc1ccnc2cc(Cl)ccc12 (racemic) [racemic CQ, chloroquine]	~50		
CCN(CC)CCC[C@@H](C)Nc1ccnc2cc(Cl)ccc12 [R-CQ, (R)-chloroquine]	1	significantly higher	
CCN(CC)CCC[C@H](C)Nc1ccnc2cc(Cl)ccc12 [S-CQ, (S)-chloroquine]			60
